Measurements reported in publication PMC11090211 (Chemico-biological interactions, 2024).
Where two headings read alike, the source gives them in different places.

Tests used:
[1] = biological target: T1, H44R/H48Q yeast alcohol dehydrogenase (Saccharomyces cerevisiae, UniProt P00330, H45R/H49Q)
[2] = biological target: T2, H44R/H48Q yeast ADH (Saccharomyces cerevisiae, UniProt P00330, H45R/H49Q); assay type: biochemical; details: 5 mM 1-butanol or 1-butanol-d9, 2 mM NAD^+, pH range from 6.5 to 10.5
[3] = tested on: wild-type yeast alcohol dehydrogenase; details: cited from earlier work
[4] = biological target: T1, H44R/H48Q yeast alcohol dehydrogenase; assay: biochemical
[5] = biological target: H48Q yeast alcohol dehydrogenase; details: pH 7.3, 30 °C, 83 mM potassium phosphate, 40 mM KCl, cited from earlier work
[6] = biological target: H44R yeast alcohol dehydrogenase; details: pH 7.3, 30 °C, 83 mM potassium phosphate, 40 mM KCl, cited from earlier work
[7] = biological target: T2, H44R/H48Q yeast ADH; assay type: biochemical
[8] = biological target: T3, wild-type yeast ADH (Saccharomyces cerevisiae, UniProt P00330); details: cited from earlier work
T3 sequence (P00330 1-348): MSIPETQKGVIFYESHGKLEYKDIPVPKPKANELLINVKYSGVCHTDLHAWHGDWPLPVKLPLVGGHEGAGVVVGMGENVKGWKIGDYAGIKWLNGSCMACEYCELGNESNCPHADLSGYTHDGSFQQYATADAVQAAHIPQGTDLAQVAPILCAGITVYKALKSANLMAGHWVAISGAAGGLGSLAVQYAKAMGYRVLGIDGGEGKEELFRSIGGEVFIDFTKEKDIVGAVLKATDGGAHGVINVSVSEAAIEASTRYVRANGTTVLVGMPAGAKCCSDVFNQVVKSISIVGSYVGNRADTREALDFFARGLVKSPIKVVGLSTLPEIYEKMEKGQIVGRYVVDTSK

[9] = pH 7.3, 30 °C, 83 mM potassium phosphate, 40 mM KCl
[10] = read-out: Kiq, inhibition (dissociation) constant for NADH, pH 7.3, 30 °C, 83 mM potassium phosphate, 40 mM KCl
[11] = read-out: Kiq, inhibition (dissociation) constant for NADH

T1 sequence (P00330 2-348 H45R/H49Q): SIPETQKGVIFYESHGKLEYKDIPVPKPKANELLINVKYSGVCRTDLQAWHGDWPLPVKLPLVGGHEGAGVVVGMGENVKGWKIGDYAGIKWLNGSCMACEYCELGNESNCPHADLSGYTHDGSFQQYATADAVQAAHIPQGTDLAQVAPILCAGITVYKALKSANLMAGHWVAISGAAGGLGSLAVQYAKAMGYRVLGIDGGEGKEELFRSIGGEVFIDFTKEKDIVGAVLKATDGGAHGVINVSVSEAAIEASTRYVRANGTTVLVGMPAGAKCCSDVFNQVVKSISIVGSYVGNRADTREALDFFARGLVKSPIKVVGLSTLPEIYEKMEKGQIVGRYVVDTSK
T2 sequence (P00330 2-348 H45R/H49Q): as above

With CCCCO [1-butanol] the “Catalytic efficiency with butanol, fold lower than with ethanol” value [1] was “about 20 fold”, the Km ([1]; 1-butanol) was about 30 mM and the “average isotope effect, butanol oxidation” value [2] was 4.2. For the same compound, the “Catalytic efficiency with butanol, fold lower than with ethanol” value [3] was “about 20 fold”.
For OCC(F)(F)F [CF3CH2OH, 2,2,2-trifluoroethanol, reference compound], the Ki [4] is given as 55000 µM, the Ki ([3]; read-out: Ki, CF3CH2OH, pH 7.3, 30 °C, 83 mM potassium phosphate, 40 mM KCl) is given as 2500 µM and the Ki ([5]; read-out: Ki, CF3CH2OH) is given as 33000 µM. The Ki ([6]; read-out: Ki, CF3CH2OH) was 19000 µM.
For NC(=O)C1=CN([C@@H]2O[C@H](COP(=O)([O-])OP(=O)([O-])OC[C@H]3O[C@@H](n4cnc5c(N)ncnc54)[C@H](O)[C@@H]3O)[C@@H](O)[C@H]2O)C=CC1.[Na+].[Na+] [NADH], the “Kq, Michaelis constant for NADH” value [1, 9] is given as 42 pM, the Ki [1, 10] is given as 3.5 µM and the “Kq, Michaelis constant for NADH” value [3, 9] is given as 94 pM. For the same compound, the Ki [3, 10] was 31 µM, the “Kq, Michaelis constant for NADH” value [5] was 110 pM and the Ki [5, 11] was 13 µM. The “Kq, Michaelis constant for NADH” value [6] was 10 pM, the Ki [6, 11] was 16 µM and the “pK of pH dependence of Kiq” value [7] was 8.9 ± 0.2. For the same compound, the “pK of pH dependence of V2/Etkq” value [7] was 8.8 ± 0.1, the “Kiq, limiting value ka” value ([7]; EH form) was “ka 7.9 ± 1.4 μM” and the “V2/Etkq, limiting value ka” value ([7]; EH form) was “ka 16 ± 2 μM^−1s^−1”. For the same compound, the “rate constant for dissociation, calculated from V2Kiq/EtKq” value ([7]; essentially pH independent) was 120 s⁻¹, the “Kiq, limiting value ka” value ([8]; EH form) was 15 ± 2 µM and the “V2/Etkq, limiting value” [8] was 32 ± 3 µM⁻¹ s⁻¹. For the same compound, the “pK of pH dependence of Kiq” value [8] was 7.4 ± 0.2 and the “pK of pH dependence of V2/Etkq” value [8] was 7.8 ± 0.2.
